Drawing on patent US20250388565A1, “ESTROGEN RECEPTOR ALPHA DEGRADERS AND METHODS OF USE THEREOF” (Relay Therapeutics, Inc., priority 2022, published 2025), this text covers DC50 for 21 compounds.

Each structure is given as a SMILES string.

In the assay the target is T1, ERα protein (HiBiT-tagged) in ESR1_HiBiT KI MCF7 cells (Homo sapiens, UniProt P03372).
T1 sequence (P03372 1-595): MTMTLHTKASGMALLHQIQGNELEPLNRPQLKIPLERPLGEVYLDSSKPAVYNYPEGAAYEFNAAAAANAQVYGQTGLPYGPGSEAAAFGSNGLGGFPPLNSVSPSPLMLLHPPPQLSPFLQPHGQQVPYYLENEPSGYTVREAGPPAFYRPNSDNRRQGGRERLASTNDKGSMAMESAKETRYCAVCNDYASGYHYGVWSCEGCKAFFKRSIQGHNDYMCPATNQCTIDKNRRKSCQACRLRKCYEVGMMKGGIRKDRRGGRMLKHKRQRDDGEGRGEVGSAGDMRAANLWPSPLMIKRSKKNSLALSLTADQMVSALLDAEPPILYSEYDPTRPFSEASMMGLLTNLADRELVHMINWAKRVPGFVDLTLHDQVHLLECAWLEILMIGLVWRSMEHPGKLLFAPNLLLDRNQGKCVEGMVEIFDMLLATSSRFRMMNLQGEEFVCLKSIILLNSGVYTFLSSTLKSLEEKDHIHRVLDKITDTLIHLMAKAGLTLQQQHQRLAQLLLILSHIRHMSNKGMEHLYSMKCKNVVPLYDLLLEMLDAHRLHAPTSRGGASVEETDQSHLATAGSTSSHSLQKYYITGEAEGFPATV
Nature of the assay: Nano Glo HiBiT Lytic Degradation Assay. It is filed as cell-based. Conditions: 6 hours with compound, 14-point dose response 1:3, bell-shape curve fit, half-maximal effect of first Hill model, read-out: MCF7 ESR1 HiBiT - (DC50). An outline of the steps: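 ESR1_HiBiT knock-in MCF7 cells were seeded 24 h before treatment, then exposed to compounds for 6 h at 37° C (14-point 1:3 curves, 10 mM top stock, 0.1% DMSO final, duplicates). HiBiT-ERα was read by lytic LgBiT luminescence, background-subtracted and normalized to DMSO. DC50 was taken from the half-maximal point of the first Hill component of a bell-shaped fit.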
What is called DC50 is the concentration at which degradation of the target reaches its halfway point. Take `O=C1CCC(N2Cc3cc([C@H]4CCN(CC5CCN(c6ccc([C@@H]7c8ccc(O)cc8CC[C@@H]7c7ccccc7)cc6)CC5)CC4(F)F)ccc3C2=O)C(=O)N1` (single isomer, unassigned) [II-92]: the DC50 was found to be 6 nM.

With `O=C1CC[C@H](N2Cc3cc(N4CCN(CC5CC6CCC(C5)N6c5ccc([C@@H]6c7ccc(O)cc7CC[C@@H]6c6ccccc6)cc5)CC4)ccc3C2=O)C(=O)N1` (single isomer, unassigned) [II-47], the DC50 stood at 2 nM.

In the case of `O=C1CC[C@H](N2Cc3cc(N4CCN(CC5CCN(c6ccc([C@H]7c8ccc(O)cc8CC[C@H]7c7cccc(O)c7)cc6)CC5)CC4)ccc3C2=O)C(=O)N1` [Compound I-127, (3S)-3-[5-[4-[[1-[4-[(1S,2R)-6-hydroxy-2-(3-hydroxyphenyl)tetralin-1-yl]phenyl]-4-piperidyl]methyl]piperazin-1-yl]-1-oxo-isoindolin-2-yl]piperidine-2,6-dione], the 50% degradation concentration (DC50) is at least 10000 nM.

Take `O=C1CC[C@H](N2Cc3cc(N4CCN(C[C@@H]5CCCN(c6ccc([C@H]7c8ccc(O)cc8CC[C@H]7c7ccccc7)cc6)C5)CC4)ccc3C2=O)C(=O)N1` (single isomer, unassigned) [II-21]: the half-maximal degradation concentration (DC50) was 173 nM.

For `O=C1CC[C@H](N2Cc3cc(N4CCN(CC5CCN(c6ccc([C@H]7c8ccc(O)cc8CC[C@H]7c7ccc(C(F)(F)F)cc7)cc6)CC5)CC4)ccc3C2=O)C(=O)N1` (single isomer, unassigned) [II-41], the DC50 came to 2 nM.

Regarding `O=C1CC[C@H](N2Cc3cc(N4CCN(CC5CCN(c6ccc([C@@H]7c8ccc(O)cc8CO[C@@]78CCc7ccccc78)cc6)CC5)CC4)ccc3C2=O)C(=O)N1` [Compound I-77, (S)-3-(5-(4-((1-(4-((1S,4′R)-7′-hydroxy-2,3-dihydrospiro[indene-1,3′-isochroman]-4′-yl)phenyl)piperidin-4-yl)methyl)piperazin-1-yl)-1-oxoisoindolin-2-yl)piperidine-2,6-dione], the half-maximal degradation concentration (DC50) was found to be 0.2 nM.

`O=C1CC[C@@H](c2ccc(N3CCC4(CCN(CC5CCN(c6ccc([C@@H]7c8ccc(O)cc8C(F)(F)C[C@@H]7c7ccccc7)cc6)CC5)C4)CC3)cc2)C(=O)N1` (single isomer, unassigned) [Compound I-286]: the DC50 worked out at 91.1 nM.

Regarding `C[C@@]1(C2CCCCC2)CCc2cc(O)ccc2[C@H]1c1ccc(N2CCC(CN3CCN(c4ccc5c(c4)CN([C@H]4CCC(=O)NC4=O)C5=O)CC3)CC2)cc1` [Compound I-240, (S)-3-(5-(4-((1-(4-((1R,2S)-2-cyclohexyl-6-hydroxy-2-methyl-1,2,3,4-tetrahydronaphthalen-1-yl)phenyl)piperidin-4-yl)methyl)piperazin-1-yl)-1-oxoisoindolin-2-yl)piperidine-2,6-dione], the DC50 came out at 3 nM.

On to `Cn1nc([C@H]2CCC(=O)NC2=O)c2ccc(N3CCN(CC4CCN(c5ccc([C@@H]6c7ccc(O)cc7CC[C@@H]6c6ccccc6)cc5)CC4)CC3)cc21` (single isomer, unassigned) [Compound I-295], for which the half-maximal degradation concentration (DC50) worked out at 0.84 nM.

Take `O=C1CCC(N2Cc3c(ccc(N4CCN(CC5CCN(c6ccc([C@@H]7c8ccc(O)cc8CC[C@@H]7c7ccccc7)cc6)CC5)CC4)c3F)C2=O)C(=O)N1` (single isomer, unassigned) [II-16]: the DC50 came to 2 nM.

For the compound `C[C@@H](C1CCN(c2ccc([C@@H]3c4ccc(O)cc4CC[C@@H]3c3ccccc3)cc2)CC1)N1CCN(c2ccc3c(c2)CN(C2CCC(=O)NC2=O)C3=O)CC1` (single isomer, unassigned) [II-70], the 50% degradation concentration (DC50) amounted to 5 nM.

With `CC(C)C[C@H]1OCc2cc(O)ccc2[C@@H]1c1ccc(N2CCC(CN3CCN(c4ccc5c(c4)CN([C@H]4CCC(=O)NC4=O)C5=O)CC3)CC2)cc1` (single isomer, unassigned) [Compound I-223], the DC50 was found to be 10 nM.

On to `O=C1CC[C@H](N2Cc3cc(N4CCN(CC5CCN(c6ccc([C@H]7c8ccc(O)cc8CC[C@H]7c7cccc8c7CCCC8)cc6)CC5)CC4)ccc3C2=O)C(=O)N1` (single isomer, unassigned) [Compound I-61], for which the half-maximal degradation concentration (DC50) is at least 10000 nM.

Take `C[C@H]1C[C@H](c2ccccc2)[C@H](c2ccc(N3CCC(CN4CCN(c5ccc6c(c5)CN([C@H]5CCC(=O)NC5=O)C6=O)CC4)CC3)cc2)c2ccc(O)cc21` (single isomer, unassigned) [Compound I-420]: the DC50 was found to be 2 nM.

Regarding `O=C1CCC(c2ccc(N3CCC4(CCN(CC5CCN(c6ccc([C@@H]7c8ccc(O)cc8C(F)(F)C[C@@H]7c7ccccc7)cc6)CC5)C4)CC3)cc2)C(=O)N1` (stereo partly drawn) [Compound I-308, 3-(4-(2-((1-(4-((1R,2S)-4,4-difluoro-6-hydroxy-2-phenyl-1,2,3,4-tetrahydronaphthalen-1-yl)phenyl)piperidin-4-yl)methyl)-2,8-diazaspiro[4.5]decan-8-yl)phenyl)piperidine-2,6-dione], the DC50 worked out at 0.65 nM.

For the compound `CC(C)[C@H]1CC(F)(F)c2cc(O)ccc2[C@H]1c1ccc(N2CCC(CN3CCN(c4ccc5c(c4)CN([C@H]4CCC(=O)NC4=O)C5=O)CC3)CC2)cc1` [Compound I-156, (S)-3-(5-(4-((1-(4-((1R,2R)-4,4-difluoro-6-hydroxy-2-isopropyl-1,2,3,4-tetrahydronaphthalen-1-yl)phenyl)piperidin-4-yl)methyl)piperazin-1-yl)-1-oxoisoindolin-2-yl)piperidine-2,6-dione], the DC50 is 0.4 nM.

Turning to `O=C1CC[C@H](N2Cc3cc(N4CCN(CC5CCN(c6ccc([C@@H]7c8ccc(O)cc8CC[C@@H]7C7CCC8(CC7)CC8)cc6)CC5)CC4)ccc3C2=O)C(=O)N1` [Compound I-146], the DC50 is 3 nM.

Turning to `O=C1CCC(N2Cc3cc(C4CCN(CC5CCN(c6ccc([C@@H]7c8ccc(O)cc8CC[C@@H]7c7ccccc7)cc6)CC5)CC4)ccc3C2=O)C(=O)N1` (stereo partly drawn) [II-105], the DC50 is at least 10000 nM.

For the compound `O=C1CC[C@H](N2Cc3cc(N4CCN(CC5CCN(c6ccc([C@@H]7c8ccc(O)cc8C(F)(F)C[C@@H]7c7ccc(C(F)(F)F)cc7)cc6)CC5)CC4)ccc3C2=O)C(=O)N1` [Compound I-329, (S)-3-(5-(4-((1-(4-((1R,2S)-4,4-difluoro-6-hydroxy-2-(4-(trifluoromethyl)phenyl)-1,2,3,4-tetrahydronaphthalen-1-yl)phenyl)piperidin-4-yl)methyl)piperazin-1-yl)-1-oxoisoindolin-2-yl)piperidine-2,6-dione], the 50% degradation concentration (DC50) is 0.92 nM.

Consider `Cn1nccc1[C@H]1CCc2cc(O)ccc2[C@H]1c1ccc(N2CCC(CN3CCN(c4ccc5c(c4)CN([C@H]4CCC(=O)NC4=O)C5=O)CC3)CC2)cc1` (single isomer, unassigned) [Compound I-24], for which the DC50 is at least 10000 nM.

On to `O=C1CC[C@H](N2Cc3cc(N4CCN(CC5CCN(c6ccc([C@H]7c8ccc(O)cc8CC[C@@]78CCc7ccccc78)cc6)CC5)CC4)ccc3C2=O)C(=O)N1` (relative stereo) [Compound I-261, (S)-3-(5-(4-((1-(4-((1S*,1′R*)-6′-hydroxy-2,3,3′,4′-tetrahydro-1′H-spirofindene-1,2′-naphthalen]-1′-yl)phenyl)piperidin-4-yl)methyl)piperazin-1-yl)-1-oxoisoindolin-2-yl)piperidine-2,6-dione], for which the DC50 was 19 nM.
